# Laboratory results taken from patent US20090311716A1, “METHODS TO TREAT OR PREVENT HORMONE-RESISTANT PROSTATE CANCER USING siRNA [sequence] FOR PROTOCADHERIN-PC, OR OTHER INHIBITORS OF PROTOCADHERIN-PC EXPRESSION OR ACTIVITY” (THE TRUSTEES OF COLUMBIA UNIVERSITY IN THE CITY OF NEW YORK, priority 2005, published 2009).
# Entries after “also recorded” stand apart in the source; their conditions may differ. Peptide text beside a SMILES is read from it. * marks the point of attachment. Cbz = O=C(OCc1ccccc1)*
# How the values were obtained:
# Assay type in all cases: cell-based, human
# PCDH-PC = assay: Western blot of myc-tagged PCDH-PC in LNCaP cells co-transfected with pPCDH-PC-myc and siRNA; details: siRNA 100 nM co-transfected with pPCDH-PC-myc, 48 hrs
# Text: FIGS. 4A-4B. siRNAs against PCDH-PC suppress PCDH-PC expression and NE transdifferentiation of LNCaP cells. FIG. 4A. LNCaP cells were transfected with the pPCDH-PC-myc expression vector and were co-transfected with siRNA against human lamin or siRNAs 181, 190 or 208 designed to suppress PCDH-PC expression. A Western blot made against protein extracts from these cells were probed with anti-myc (Top Panel) to identify expression of the 110 kd PCDH myc-tagged protein, anti-β-actin (Middle Panel) or anti-human E-cadherin (Bottom Panel). FIG. 4B. A repeated experiment that includes control LNCaP cells (no transfection) or pCMV-PCDH-myc transfected LNCaP cells co-transfected with siRNAs against lamin or against PCDH-PC (181, 190 or 208). The Western blot was probed for NSE expression (Top Panel) or for β-actin expression (Bottom Panel).
# Expression Vectors, Transfection Protocols and Luciferase/β-Glactosidase Assays. PCDH-PC cDNA was inserted into the mammalian expression vectors pcDNA3 (Invitrogen Life Technologies, Inc., Carlsbad, Calif.) or into pCMV-myc (BD Biosciences, Clontech, Inc., Palo Alto, Calif.) so that the PCDH-PC product generated from this vector (pPCDH-PC-myc) has a C-terminal myc tag. An expression vector containing cDNA encoding a mutated (stabilized) form of human β-catenin (Tetsu and McCormick, 1999) was used. A dominant-negative Tcf expression vector used was previously described (Chen et al., 2001). The Tcf-sensitive reporter vector, pTOP and a CMV-promoted β-galactosidase expression vector were obtained from Upstate Biotechnology, Inc. Transfections used for protein or RNA extractions were done in 35 cm^2 dishes with cells plated at 50% density 12-16 hrs prior. […] Luciferase activity in cell extracts was measured using the Luciferase Assay System of Promega, Inc. (Madison, Wis.). β-galactosidase activity was also measured in the same cell extracts using the β-galactosidase Enzyme Assay System of Promega, Inc. All experiments involving luciferase reporter vectors were done in triplicate for each point. […]
# NSE and chromogranin-A = assay: Western blot of NE biomarkers in LNCaP cells treated with NE transdifferentiation inducers; details: 1 mM db-cAMP, 50 ng/ml IL-6 or 5 nM NS-398, 5 days
# Text: (§1) FIGS. 3A-3D. […] FIG. 3A. […] FIG. 3B. […] FIG. 3C. […] FIG. 3D.
# PCDH-PC mRNA = assay: RT-PCR of PCDH-PC mRNA in LNCaP cells; details: 1 mM db-cAMP, 50 ng/ml IL-6 or 5 nM NS-398, 5 days
# Text: as §1
# FIG. 5A. […] FIG. 5B. […] FIG. 5C.
# hAR protein = assay: Western blot of hAR protein in Wnt-activated LNCaP cells; details: β-catenin or PCDH-PC transfected or 7 days androgen-free LNCaP
# Text: FIGS. 43A-43C. […] FIG. 43A. […] FIG. 43B.
# (§2) FIGS. 44A-44B. Suppression of MDM2 expression or direct Akt activity relieves Wnt-mediated suppression of hAR protein expression. FIG. 44A. […] (middle). Actin control (bottom). FIG. 44B. […] Actin control (bottom).
# (§3) Cell lines, plasmids and siRNAs. LNCaP, CWR22rv-1, PC-3 and DU145 cells were obtained from ATCC and were passaged in normal (for LNCaP, RPMI 1640 with 10% fetal calf serum and supplements) or androgen-free maintained as previously described (Yang et al., 2005). A defective adenovirus that expresses Wnt-1 protein (Ad-Wnt-1) and control, Lac Z expressing adenovirus (Ad-lac Z) were previously described (Young et al., 1998). These viruses were applied at 20 particles/cell in low serum (2%) medium for 1 h. Expression plasmids containing mutated (stabilized) human β-catenin (Tetsu and McCormick, 1999), dominant negative TCF-4 (Chen et al., 2001) or PCDH-PC cDNA were transfected into cells as previously described (Example 1; Yang et al., 2005). Small interfering (si) RNAs targeting β-catenin or lamin were purchased from Dharmacon Inc. siRNA targeting human MDM2 was purchased from Qiagen Inc (Valencia, Calif.). siRNAs were transfected into cells. Proteasome inhibitors MG132 and lactacystin were purchased from Sigma Chemical Co. (St Louis, Mo.) and were used at 5 (MG 132) or 10 (lactacystin) […] for 12 h prior to cell harvesting. PI3-kinase inhibitor LY294002 (Sigma Chemical Co.) and Akt Inhibitor IV (compound 5233705, EMD Biosciences Inc., San Diego, Calif.) (Kau et al., 2003) were used at 4 and 50 mM concentrations, respectively, for 12 h prior to harvesting cells.
# (§4) Preparation of cell extracts and western blots. Cells were harvested and protein extracts prepared, quantified and used to prepare Western blots as previously described (Example 1; Yang et al., 2005). […] Recombinant Wnt-1 protein (HA-tagged) was detected with anti-HA antibody (Clontech Inc., Mountain View, Calif.). Antibody binding to the Western blot was detected as previously described (Yang et al., 2005). […]
# MDM2 = assay: Western blot of phosphorylated MDM2 in Wnt-activated LNCaP cells; details: β-catenin transfected or 7 days androgen-free LNCaP
# Text: as §2
# (§5) FIG. 45. Proteasome inhibitors block the suppression of MDM2 phosphorylation and suppress degradation of PP2A B subunit protein in Wnt-activated LNCaP cells. […] There was no change in the PP2A catalytic C subunit levels in Wnt-activated or proteasome-inhibitor treated cells (bottom).
# as §3, with “PI3-kinase inhibitor LY294002 (Sigma Chemical Co.) and Akt Inhibitor IV (compound 5233705, EMD Biosciences Inc., San Diego, Calif.) (Kau et al., 2003) were used at 4 and 50 mM concentrations, respectively, for 12 h prior to harvesting cells.” left out
# as §4
# PP2A B subunit = assay: Western blot of PP2A B subunit in Wnt-activated LNCaP cells
# Text: as §5
# Preparation of cell extracts and western blots. Cells were harvested and protein extracts prepared, quantified and used to prepare Western blots as previously described (Example 1; Yang et al., 2005). Western blots were probed with mouse monoclonal antibodies against human Akt protein, phospho-MDM2 (ser 166), hAR (Santa Cruz Biotechnology Inc., Santa Cruz, Calif.), actin (Sigma Chemical Co., St Louis, Mo.) or with rabbit polyclonal antibodies against phospho-Akt (ser 473) or human MDM2 (Cell Signaling Technology, Beverly, Mass.). Recombinant Wnt-1 protein (HA-tagged) was detected with anti-HA antibody (Clontech Inc., Mountain View, Calif.). Antibody binding to the Western blot was detected as previously described (Yang et al., 2005). Densitometry of films was carried out using a Kodak Image Station 420.
molecule,measurement,setting,value
"siRNA #208: 21 bp siRNA targeting PCDH-PC mRNA position 3345-3364, 19 bp core with UU overhangs (SEQ ID NO:7) (AAGAAACTAAGGCAGATGATG; listed as DNA, further chemistry not given here)",expression of myc-tagged PCDH-PC polypeptide,PCDH-PC,suppressive effects
CS(=O)(=O)Nc1ccc([N+](=O)[O-])cc1OC1CCCCC1 [NS-398],expression of NSE and chromogranin-A proteins,NSE and chromogranin-A,highly upregulated
same,expression of PCDH-PC mRNA,PCDH-PC mRNA,highly upregulated
CC(C)C[C@@H](C=O)NC(=O)[C@H](CC(C)C)NC(=O)[C@H](CC(C)C)NC(=O)OCc1ccccc1 [MG132] (Cbz-Leu-Leu-Leu-aldehyde),Wnt-mediated suppression of hAR protein expression,hAR protein,restored to levels commensurate with elevated hAR mRNA levels
same,Wnt-mediated upregulation of MDM2 phosphorylation,MDM2,blocked
same,loss of PP2A regulatory subunit B,PP2A B subunit,blocked
"siRNA #190: 21 bp siRNA targeting PCDH-PC mRNA position 3098-3117, 19 bp core with UU overhangs (SEQ ID NO:6) (AAACATGCAGAATTCTGAATG; listed as DNA, further chemistry not given here)",expression of myc-tagged PCDH-PC polypeptide,PCDH-PC,suppressive effects
interleukin-6 [IL-6],expression of NSE and chromogranin-A proteins,NSE and chromogranin-A,highly upregulated
same,expression of PCDH-PC mRNA,PCDH-PC mRNA,highly upregulated
CC(=O)N[C@@H](CSC(=O)[C@]1([C@@H](O)C(C)C)NC(=O)[C@H](C)[C@@H]1O)C(=O)O [lactacystin],Wnt-mediated suppression of hAR protein expression,hAR protein,restored to levels commensurate with elevated hAR mRNA levels
same,Wnt-mediated upregulation of MDM2 phosphorylation,MDM2,blocked
same,loss of PP2A regulatory subunit B,PP2A B subunit,blocked
CC[n+]1c(/C=C/N(C)c2ccccc2)n(-c2ccccc2)c2ccc(-c3nc4ccccc4s3)cc21.[I-] [compound 5233705],Wnt-mediated suppression of hAR protein expression,hAR protein,significant elevation; also recorded: relieves
same,Wnt-mediated upregulation of MDM2 phosphorylation,MDM2,able to suppress; also recorded: relieves
